Source: ChEMBL document CHEMBL4270577, “Synthesis, anticancer activity and molecular modeling studies of 1,2,4-triazole derivatives as EGFR inhibitors” (Eur J Med Chem, 2018)

How the values were obtained:
CCRF-CEM = test: Growth inhibition of human CCRF-CEM cells at 10 uM incubated for 48 hrs by sulforhodamine B assay relative to control; format: functional; details: read-out: GI
HL-60(TB) = test: Growth inhibition of human HL-60(TB) cells at 10 uM incubated for 48 hrs by sulforhodamine B assay relative to control; format: functional; details: HL-60, 48 h, read-out: GI
MOLT-4 = test: Growth inhibition of human MOLT4 cells at 10 uM incubated for 48 hrs by sulforhodamine B assay relative to control; format: functional; details: MOLT-4, 48 h, read-out: GI
RPMI-8226 = test: Growth inhibition of human RPMI8226 cells at 10 uM incubated for 48 hrs by sulforhodamine B assay relative to control; format: functional; details: RPMI-8226, 48 h, read-out: GI
SR = test: Growth inhibition of human SR cells at 10 uM incubated for 48 hrs by sulforhodamine B assay relative to control; format: functional; details: read-out: GI
A549 = test: Growth inhibition of human A549/ATCC cells at 10 uM incubated for 48 hrs by sulforhodamine B assay relative to control; format: functional; details: A549, 48 h, read-out: GI
HOP-62 = test: Growth inhibition of human HOP62 cells at 10 uM incubated for 48 hrs by sulforhodamine B assay relative to control; format: functional; details: HOP-62, 48 h, read-out: GI
NCI-H226 = test: Growth inhibition of human NCI-H226 cells at 10 uM incubated for 48 hrs by sulforhodamine B assay relative to control; format: functional; details: NCI-H226, 48 h, read-out: GI
NCI-H23 = test: Growth inhibition of human NCI-H23 cells at 10 uM incubated for 48 hrs by sulforhodamine B assay relative to control; format: functional; details: NCI-H23, 48 h, read-out: GI
NCI-H322M = test: Growth inhibition of human NCI-H322M cells at 10 uM incubated for 48 hrs by sulforhodamine B assay relative to control; format: functional; details: read-out: GI
NCI-H522 = test: Growth inhibition of human NCI-H522 cells at 10 uM incubated for 48 hrs by sulforhodamine B assay relative to control; format: functional; details: NCI-H522, 48 h, read-out: GI
HT-29 [1] = test: Growth inhibition of human HT-29 cells at 10 uM incubated for 48 hrs by sulforhodamine B assay relative to control; format: functional; details: HT-29, 48 h, read-out: GI
SF-268 = test: Growth inhibition of human SF268 cells at 10 uM incubated for 48 hrs by sulforhodamine B assay relative to control; format: functional; details: SF-268, 48 h, read-out: GI
SNB-19 = test: Growth inhibition of human SNB19 cells at 10 uM incubated for 48 hrs by sulforhodamine B assay relative to control; format: functional; details: SNB-19, 48 h, read-out: GI
SNB-75 = test: Growth inhibition of human SNB75 cells at 10 uM incubated for 48 hrs by sulforhodamine B assay relative to control; format: functional; details: SNB-75, 48 h, read-out: GI
U-251 = test: Growth inhibition of human U251 cells at 10 uM incubated for 48 hrs by sulforhodamine B assay relative to control; format: functional; details: U-251, 48 h, read-out: GI
SK-MEL-2 = test: Growth inhibition of human SK-MEL-2 cells at 10 uM incubated for 48 hrs by sulforhodamine B assay relative to control; format: functional; details: SK-MEL-2, 48 h, read-out: GI
UACC-257 = test: Growth inhibition of human UACC257 cells at 10 uM incubated for 48 hrs by sulforhodamine B assay relative to control; format: functional; details: UACC-257, 48 h, read-out: GI
UACC-62 = test: Growth inhibition of human UACC62 cells at 10 uM incubated for 48 hrs by sulforhodamine B assay relative to control; format: functional; details: UACC-62, 48 h, read-out: GI
IGROV-1 = test: Growth inhibition of human IGROV1 cells at 10 uM incubated for 48 hrs by sulforhodamine B assay relative to control; format: functional; details: IGROV-1, 48 h, read-out: GI
OVCAR-8 = test: Growth inhibition of human OVCAR8 cells at 10 uM incubated for 48 hrs by sulforhodamine B assay relative to control; format: functional; details: OVCAR-8, 48 h, read-out: GI
SK-OV-3 = test: Growth inhibition of human SKOV3 cells at 10 uM incubated for 48 hrs by sulforhodamine B assay relative to control; format: functional; details: SK-OV-3, 48 h, read-out: GI
UO-31 = test: Growth inhibition of human UO31 cells at 10 uM incubated for 48 hrs by sulforhodamine B assay relative to control; format: functional; details: UO-31, 48 h, read-out: GI
PC-3 = test: Growth inhibition of human PC3 cells at 10 uM incubated for 48 hrs by sulforhodamine B assay relative to control; format: functional; details: PC-3, 48 h, read-out: GI
MCF7 = test: Growth inhibition of human MCF7 cells at 10 uM incubated for 48 hrs by sulforhodamine B assay relative to control; format: functional; details: MCF7, 48 h, read-out: GI
MDA-MB-231 = test: Growth inhibition of human MDA-MB-231/ATCC cells at 10 uM incubated for 48 hrs by sulforhodamine B assay relative to control; format: functional; details: MDA-MB-231, 48 h, read-out: GI
Hs-578T = test: Growth inhibition of human Hs 578T cells at 10 uM incubated for 48 hrs by sulforhodamine B assay relative to control; format: functional; details: read-out: GI
T47D = test: Growth inhibition of human T47D cells at 10 uM incubated for 48 hrs by sulforhodamine B assay relative to control; format: functional; details: read-out: GI
PANC-1 = test: Antiproliferative activity against human PANC1 cells after 48 hrs by propidium iodide staining-based fluorometric analysis; format: functional, cell-based; details: PANC-1, 48 h
MIA PaCa-2 = test: Antiproliferative activity against human MIAPaCa2 cells after 48 hrs by propidium iodide staining-based fluorometric analysis; format: functional, cell-based; details: MIA PaCa-2, 48 h
HT-29 [2] = test: Antiproliferative activity against human HT-29 cells after 48 hrs by propidium iodide staining-based fluorometric analysis; format: functional, cell-based; details: HT-29, 48 h
NCI-H460 = test: Antiproliferative activity against human H460 cells after 48 hrs by propidium iodide staining-based fluorometric analysis; format: functional, cell-based; details: NCI-H460, 48 h
Tubulin (Homo sapiens) = Tubulin (Homo sapiens) (UniProt P68371+Q9H4B7+P0DPH7+P68366+Q13509+Q71U36+P04350+Q3ZCM7+P07437+P68363+Q9BQE3+Q6PEY2+Q13885+Q9BVA1+Q9BUF5); test: Inhibition of tubulin (unknown origin) polymerization assessed as polymerized tubulin level at 5 to 25 uM by fluorescence assay; format: protein-complex assay

`C/C(=N\O)c1ccc(NC(=O)Cn2nc(-c3ccc(Cl)cc3)nc2N)cc1` gave an inhibition of growth at 10 µM (CCRF-CEM) of 14.7%, an inhibition of growth at 10 µM (HL-60(TB)) of 5.94% and an inhibition of growth at 10 µM (MOLT-4) of 33%. It also gave an inhibition of growth at 10 µM (RPMI-8226) of 6.42%, an inhibition of growth at 10 µM (SR) of 18.3% and an inhibition of growth at 10 µM (A549) of 20.1%. It also gave an inhibition of growth at 10 µM (HOP-62) of 11.7%, an inhibition of growth at 10 µM (NCI-H226) of 17.8% and an inhibition of growth at 10 µM (NCI-H23) of 7.43%. For the same compound, the inhibition of growth at 10 µM (NCI-H322M) was 7.09%, the inhibition of growth at 10 µM (NCI-H522) was 31.5% and the inhibition of growth at 10 µM (HT-29 [1]) was 13.3%. For the same compound, the inhibition of growth at 10 µM (SF-268) was 10.5%, the inhibition of growth at 10 µM (SNB-19) was 10.7% and the inhibition of growth at 10 µM (SNB-75) was 12%. It also gave an inhibition of growth at 10 µM (U-251) of 9.67%, an inhibition of growth at 10 µM (SK-MEL-2) of 15.3% and an inhibition of growth at 10 µM (UACC-257) of 27.8%. For the same compound, the inhibition of growth at 10 µM (UACC-62) was 8.96%, the inhibition of growth at 10 µM (IGROV-1) was 10.5% and the inhibition of growth at 10 µM (OVCAR-8) was 18%. It also gave an inhibition of growth at 10 µM (SK-OV-3) of 27.4%, an inhibition of growth at 10 µM (UO-31) of 34% and an inhibition of growth at 10 µM (PC-3) of 28.9%. The inhibition of growth at 10 µM (MCF7) was 15.9%, the inhibition of growth at 10 µM (MDA-MB-231) was 17.4% and the inhibition of growth at 10 µM (Hs-578T) was 11.2%. It also gave an inhibition of growth at 10 µM (T47D) of 13.5%, an IC50 (PANC-1) of 6.6 µM and an IC50 (MIA PaCa-2) of 8.4 µM. For the same compound, the IC50 (HT-29 [2]) was 5.8 µM and the IC50 (NCI-H460) was 7.1 µM.
Compound `CC[C@]1(O)C[C@H]2CN(CCc3c([nH]c4ccccc34)[C@@](C(=O)OC)(c3cc4c(cc3OC)N(C=O)[C@H]3[C@@](O)(C(=O)OC)[C@H](OC(C)=O)[C@]5(CC)C=CCN6CC[C@]43[C@@H]65)C2)C1` has an Activity (Tubulin (Homo sapiens)) of 722 a.u.
